We go through one compound from patent publication US12384751B2, “Allosteric activators of the ALPHA1A-adrenergic receptor” (The Cleveland Clinic Foundation, priority 2019, dated 2025).

Each structure is given as a SMILES string. “Also recorded” adds a separate entry of the source.

In data set [1] the test system is 3×TG Alzheimer's Disease (AD) mouse model. Put plainly: Hippocampal CA1 electrophysiology (LTP, input-output, paired-pulse ratio) in 3×TG mice. The format is in vivo. The protocol:
(§1) AD mice were first randomized and sorted into control or treatment groups. […] 14 AD mice from each treatment group received Compound 3 in the drinking water (2.611 mg/kg/bw) to deliver a daily dose near the peak potentiation of the cAMP response in the brain at 10^−8M based upon the PAM assay and pharmacokinetics. This was achieved by adding Compound 3 to the drinking water at 32 uM, assuming the mice drink 6 ml/day, with only 10% of bioavailable drug reaching the brain. The drug was administered in the drinking water for 10 months, starting at age 2 months, then subjected to either different cognitive behavioral tests or electrophysiology at age 12 months to maximize the manifestations of AD symptoms in these mice. Mice are maintained on the drug for the duration of the studies and blinded to the operator.
At 12 months of age mice were subjected to long term potentiation (LTP) (FIG. 25).
Electrophysiology. Hippocampi are removed and slices cut 400 μm thick and immediately transferred to an oxygenated holding chamber filled with artificial cerebrospinal fluid, acclimated and transferred to recording chambers. Micropipettes are backfilled with NaCl solution and placed in the stratum radiatum. Evoked field excitatory postsynaptic potentials (fEPSPs) are measured in current clamp mode. An ISO-flex stimulator paired with a 7.5-cm bipolar tungsten-stimulating electrode is used for presynaptic stimulation of the Schaffer collateral-commissural fibers. Signals are converted from analog to digital and electronic cycling and noise filtered. Basal synaptic transmission is assessed by determining input-output curves, generated by applying a stepwise 5 μA increase in stimulation intensity. Responses are elicited every 20 seconds with duration of 100 μs per pulse. Short-term plasticity is investigated by assessing paired-pulse facilitation (PPF) by applying two pulses with interpulse intervals of 35-300 ms. A baseline response of 30 min is recorded immediately after PPF, which is followed by θ-burst stimulation (TBS) given at 80% maximal response to induce LTP. fEPSPs are recorded at 50% maximal response every 20 seconds for 90 minutes.

The next data set concerns the target T1, α1D-AR (Homo sapiens, UniProt P25100).
T1 construct: expressed in transfected cells; host or cells: Rat-1 fibroblast cells
T1 sequence (P25100 1-572): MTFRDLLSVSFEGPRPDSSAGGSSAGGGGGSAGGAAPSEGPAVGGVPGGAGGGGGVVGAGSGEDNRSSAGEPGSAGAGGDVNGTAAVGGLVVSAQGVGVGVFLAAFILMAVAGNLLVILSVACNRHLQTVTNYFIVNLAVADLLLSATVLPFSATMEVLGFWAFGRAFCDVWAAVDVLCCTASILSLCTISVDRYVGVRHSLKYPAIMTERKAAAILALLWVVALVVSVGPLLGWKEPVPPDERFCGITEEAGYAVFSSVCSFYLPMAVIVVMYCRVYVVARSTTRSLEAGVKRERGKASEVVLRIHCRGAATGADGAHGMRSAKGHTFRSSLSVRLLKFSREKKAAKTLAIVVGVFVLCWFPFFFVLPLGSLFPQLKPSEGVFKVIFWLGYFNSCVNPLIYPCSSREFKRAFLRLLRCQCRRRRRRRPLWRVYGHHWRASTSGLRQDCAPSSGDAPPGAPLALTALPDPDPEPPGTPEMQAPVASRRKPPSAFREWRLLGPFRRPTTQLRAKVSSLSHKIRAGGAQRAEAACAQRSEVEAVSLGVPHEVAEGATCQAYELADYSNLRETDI
As to the kind of experiment: cAMP assay at α1D-AR. Format: cell-based. The protocol:
cAMP assay: Cells expressing a single α1-adrenergic receptor subtype are washed and re-plated into 24-well plates in DMEM media without serum at approximately 2.4×10^4 cells/well. Cells are allowed to rest till the next day in a CO2 incubator at 37° C. The cells are washed twice with DMEM (no serum), then 1 ml of DMEM is added to each well. Cells are pre-incubated for 45 mins-1 hour at 37° C. in a CO2 incubator with 10 uM propranolol, followed by 100 uM IBMX for 30 minutes. Final DMSO concentration is at 0.05%. Norepinephrine or epinephrine is added in a dose response (1 dose per well) in addition to one of the Compounds 1-10 at one concentration (i.e. 10^−5M). Cells are incubated for another 30 mins at 37° C. in a CO2 incubator. The reaction is concluded by aspirating the media and adding 0.1M HCL. The mixture is incubated for 20 mins at room temperature. The cells are scraped and suspended until homogenous. The mixture is centrifuged at 1000 g for 10 mins and the supernatant assayed the same day according to a manufacturer's cAMP kit (Cayman Select Cyclic AMP EIA kit #501040).

The subject of data set [2] is 3×TG Alzheimer's Disease (AD) mouse model. Particulars: in vivo. Here is the method: as §1

`CC(C)Cc1c(OCC2=NCCN2)cccc1N(C)S(C)(=O)=O` [Compound 3, N-[3-(4,5-Dihydro-1H-imidazol-2-ylmethoxy)-2-isobutyl-phenyl]-N-methyl-methanesulfonamide]: the “paired pulse ratio (PPR) vs untreated, female” value in data set [1] (female 3×TG mice) was “higher”. Further, the “basal synaptic transmission / synaptic strength (input-output)” value in data set [1] (female 3×TG mice, CA1, approaching significance) was “increase synaptic strength; also recorded: increased”. The “long term potentiation (LTP) vs untreated” value in data set [1] (female AD mice, 12 months of age, CA1) is given as “statistically significant (p<0.01)”. For the same compound, in data set [1] (male 3×TG mice), the “paired pulse ratio (PPR) vs untreated, male” value is “increased PPR”. Moreover, the “effect on norepinephrine cAMP response at the α1D-AR” value on α1D-AR is “no effect”. The “death rates between groups” value in data set [2] is “no differences in the death rates”.
